From patent US8895571B2, “Isoindolinone and pyrrolopyridinone derivatives as Akt inhibitors” (Incyte Corporation, priority 2011, dated 2014)

Tests used:
[1] = test system: LNCaP cells (human prostate tumor cell line); experiment: Akt LNCaP proliferation assay (MTS); format: cell-based; conditions: 2% fetal bovine serum, 48 hours, class symbols
Experimental: LNCaP cells (human prostate tumor cell line) were plated in 96 well plates (COSTAR, Corning, N.Y.) in 50 μL at 10,000 cells/well in RPMI (Media Tech, Manassas, Va.), 2% fetal bovine serum (Hyclone/Thermo, Logan, Utah) and incubated overnight at 37° C., 5% CO2. […] of compound solution were added at final concentrations of 1000 nM to 0.5 nM in 3 fold dilutions for IC50 determination and plates further incubated for 48 hours. 100 μL of Cell Titer 96® Aqueous reagent, from an MTS colorimetric method for determining the number of viable cells in proliferation (Cell titer 96, Promega, Madison, Wis.) was added for 2 hours at 37° C., 5% CO2. Each plate was mixed well and read on a SpectroMax M5 automated plate reader (Molecular Devices, Sunnyvale Calif.). The ability of the compound to inhibit proliferation was reported as the inhibitor concentration required for 50% inhibition (IC50 values) of total cell proliferation. See Table 8 for data related to compounds of the examples.

Full length Akt1 = biological target: T1, Full length Akt1 (Homo sapiens, UniProt P31749); experiment: In vitro Akt kinase enzymatic assay (HTRF), Akt1; format: biochemical; conditions: 0.4 nM Akt1, substrate solution with 5 mM ATP, 25° C. 1 hr
T1 construct: Full length Akt1 (cat #P2999); purchased PerkinElmer P2999
Summary of the method: (§1)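 Full-length enzyme (0.4 nM Akt1 or 0.6 nM Akt2/Akt3 in the enzyme solution) was combined with a substrate solution of 0.1 μM ULight-Crosstide plus 5 mM ATP in pH 7.8 HEPES/MgCl2/DTT/Tween20 buffer and reacted 1 hr at 25° C. The EDTA stop contained Eu anti-phospho-Crosstide; IC50 was fitted from 11-point HTRF inhibition curves.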

Full length Akt2 = biological target: T2, Full length Akt2 (Homo sapiens, UniProt P31751); experiment: In vitro Akt kinase enzymatic assay (HTRF), Akt2; format: biochemical; conditions: 0.6 nM Akt2, substrate solution with 5 mM ATP, 25° C. 1 hr
T2 construct: Full length Akt1 (cat #P2999), Akt2 (cat #PV3184); purchased PerkinElmer PV3184
Summary of the method: as §1

Full length Akt3 = biological target: T3, Full length Akt3 (Homo sapiens, UniProt Q9Y243); experiment: In vitro Akt kinase enzymatic assay (HTRF), Akt3; format: biochemical; conditions: 0.6 nM Akt3, substrate solution with 5 mM ATP, 25° C. 1 hr
T3 construct: Full length Akt1 (cat #P2999), Akt2 (cat #PV3184), Akt3 (cat #PV3185); purchased PerkinElmer PV3185
Summary of the method: as §1

Full length PKA = biological target: T4, Full length PKA (Homo sapiens, UniProt P17612); experiment: PKA in vitro enzymatic assay (HTRF); format: biochemical; conditions: 0.035 nM enzyme solution, substrate solution with 5 mM ATP, 25° C. 1 hr
T4 construct: Full length PKA (cat #P2912); purchased Invitrogen P2912
Summary of the method: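 IC50 came from curve fitting of percent inhibition across an 11-point, 3-fold compound series, with HTRF read after EDTA quench and Tb-labelled p-S133 antibody detection. Enzyme (0.035 nM solution) and substrate (0.1 μM fluorescein-CREBtide solution containing 5 mM ATP) reacted for 1 h at 25°C. The buffer was HEPES 50 mM pH 7.8 with 10 mM MgCl2, 5 mM DTT and 0.005% Tween20.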

T2 sequence (P31751 whole entry): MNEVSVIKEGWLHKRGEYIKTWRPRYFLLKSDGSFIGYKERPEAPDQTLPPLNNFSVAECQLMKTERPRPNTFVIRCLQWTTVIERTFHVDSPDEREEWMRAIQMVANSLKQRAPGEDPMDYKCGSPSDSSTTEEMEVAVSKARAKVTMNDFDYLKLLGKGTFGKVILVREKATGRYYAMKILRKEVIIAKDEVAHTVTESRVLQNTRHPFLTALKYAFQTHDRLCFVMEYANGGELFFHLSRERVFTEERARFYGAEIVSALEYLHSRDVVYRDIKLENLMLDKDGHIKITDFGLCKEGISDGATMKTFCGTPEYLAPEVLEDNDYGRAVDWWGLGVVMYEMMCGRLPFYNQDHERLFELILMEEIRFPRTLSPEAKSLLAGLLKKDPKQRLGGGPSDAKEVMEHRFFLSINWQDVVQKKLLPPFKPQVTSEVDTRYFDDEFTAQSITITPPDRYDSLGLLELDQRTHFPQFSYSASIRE
T3 sequence (Q9Y243 whole entry): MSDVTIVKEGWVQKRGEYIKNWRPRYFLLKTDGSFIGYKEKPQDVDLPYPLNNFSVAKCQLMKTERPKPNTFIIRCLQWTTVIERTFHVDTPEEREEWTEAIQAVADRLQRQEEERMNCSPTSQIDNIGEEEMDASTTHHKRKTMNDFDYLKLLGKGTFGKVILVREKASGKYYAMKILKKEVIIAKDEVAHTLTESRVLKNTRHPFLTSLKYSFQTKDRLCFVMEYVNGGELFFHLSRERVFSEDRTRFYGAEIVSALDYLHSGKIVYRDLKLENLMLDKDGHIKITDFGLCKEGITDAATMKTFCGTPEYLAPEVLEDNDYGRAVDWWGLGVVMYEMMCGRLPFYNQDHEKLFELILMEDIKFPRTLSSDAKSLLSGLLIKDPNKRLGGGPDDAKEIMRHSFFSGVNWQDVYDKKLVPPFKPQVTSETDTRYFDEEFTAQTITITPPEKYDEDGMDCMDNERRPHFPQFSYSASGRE
T1 sequence (P31749 whole entry): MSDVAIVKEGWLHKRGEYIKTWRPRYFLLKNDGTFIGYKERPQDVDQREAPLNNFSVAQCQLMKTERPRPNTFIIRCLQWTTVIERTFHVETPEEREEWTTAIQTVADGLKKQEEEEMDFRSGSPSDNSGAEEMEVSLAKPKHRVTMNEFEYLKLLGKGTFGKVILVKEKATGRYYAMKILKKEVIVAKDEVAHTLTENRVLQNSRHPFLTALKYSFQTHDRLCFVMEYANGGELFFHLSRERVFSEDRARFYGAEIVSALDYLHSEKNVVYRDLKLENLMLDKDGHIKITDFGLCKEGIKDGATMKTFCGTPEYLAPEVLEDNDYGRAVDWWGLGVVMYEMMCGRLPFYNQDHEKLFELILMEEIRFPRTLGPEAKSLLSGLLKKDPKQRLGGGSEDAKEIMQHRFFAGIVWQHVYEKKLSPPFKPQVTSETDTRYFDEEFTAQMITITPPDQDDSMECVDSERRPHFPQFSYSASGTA

SMILES | IC50 [1] | IC50 (Full length Akt1) | IC50 (Full length Akt2) | IC50 (Full length Akt3) | IC50 (Full length PKA)
Cn1nccc1-c1ccc2c(c1)CN([C@H](CN)CC1CCCCC1)C2=O [Example 131, 2-[(1S)-2-amino-1-(cyclohexylmethyl)ethyl]-5-(1-methyl-1H-pyrazol-5-yl)isoindolin-1-one] | < 0.5 µM | < 0.5 µM | < 0.5 µM | < 0.5 µM | 0.5 to 5 µM
Cn1nccc1-c1ccc2c(c1)CN(C(CN)c1cccc(F)c1)C2=O (stereo not drawn) [Example 117, 2-[2-amino-1-(3-fluorophenyl)ethyl]-5-(1-methyl-1H-pyrazol-5-yl)isoindolin-1-one] | < 0.5 µM | < 0.5 µM | < 0.5 µM | 0.5 to 5 µM | 0.5 to 5 µM
Cn1ncc(Br)c1-c1ccc2c(c1)CN([C@H](CN)Cc1cc(F)cc(F)c1)C2=O [Example 52, 2-[(1S)-2-amino-1-(3,5-difluorobenzyl)ethyl]-5-(4-bromo-1-methyl-1H-pyrazol-5-yl)isoindolin-1-one] | < 0.5 µM | < 0.5 µM | < 0.5 µM | < 0.5 µM | 0.5 to 5 µM
Cn1ncc(Cl)c1-c1ccc2c(c1)CN([C@H](CN)Cc1cccc(C#N)c1)C2=O [Example 62, 3-{(2S)-3-amino-2-[5-(4-chloro-1-methyl-1H-pyrazol-5-yl)-1-oxo-1,3-dihydro-2H-isoindol-2-yl]propyl}benzonitrile] | < 0.5 µM | < 0.5 µM | < 0.5 µM | < 0.5 µM | > 5 µM
Cn1ncc(Cl)c1-c1ccc2c(c1)CN([C@H](CN)Cc1cccc(C(F)(F)F)c1)C2=O (stereo in doubt) [Example 61, 2-{2-amino-1-[3-(trifluoromethyl)benzyl]ethyl}-5-(4-chloro-1-methyl-1H-pyrazol-5-yl)isoindolin-1-one] | 0.5 to 5 µM | < 0.5 µM | < 0.5 µM | < 0.5 µM | 0.5 to 5 µM
Cc1cnn(C)c1-c1cc2c(cn1)C(=O)N([C@H](CN)Cc1cccc(F)c1)C2 [Example 94, 2-[(1S)-2-amino-1-(3-fluorobenzyl)ethyl]-6-(4-methyl-1-methyl-1H-pyrazol-5-yl)-1,2-dihydro-3H-pyrrolo[3,4-c]pyridin-3-one] | < 0.5 µM | < 0.5 µM | < 0.5 µM | < 0.5 µM | 0.5 to 5 µM
Cn1ncc(Cl)c1-c1ccc2c(c1)CN([C@H](CN)CC1CCCCC1)C2=O [Example 132, 2-[(1S)-2-amino-1-(cyclohexylmethyl)ethyl]-5-(4-chloro-1-methyl-1H-pyrazol-5-yl)isoindolin-1-one] | < 0.5 µM | < 0.5 µM | < 0.5 µM | < 0.5 µM | 0.5 to 5 µM
Cn1ncc(COC2CCC2)c1-c1ccc2c(c1)CN([C@H](CN)Cc1cccc(F)c1)C2=O [Example 8, 2-[(1S)-2-amino-1-(3-fluorobenzyl)ethyl]-5-(4-cyclobutoxymethyl-1-methyl-1H-pyrazol-5-yl)isoindolin-1-one] | < 0.5 µM | < 0.5 µM | < 0.5 µM | < 0.5 µM | 0.5 to 5 µM
Cn1nccc1-c1cc2c(cn1)C(=O)N([C@H](CN)CC1CCCCC1)C2 [Example 134, 2-[(1S)-2-amino-1-(cyclohexylmethyl)ethyl]-6-(1-methyl-1H-pyrazol-5-yl)-1,2-dihydro-3H-pyrrolo[3,4-c]pyridin-3-one] | < 0.5 µM | < 0.5 µM | < 0.5 µM | < 0.5 µM | < 0.5 µM
Cn1ncc(Cl)c1-c1cc2c(cn1)C(=O)N([C@H](CN)CC1CCCCC1)C2 [Example 135, 2-[(1S)-2-amino-1-(cyclohexylmethyl)ethyl]-6-(4-chloro-1-methyl-1H-pyrazol-5-yl)-1,2-dihydro-3H-pyrrolo[3,4-c]pyridin-3-one] | < 0.5 µM | < 0.5 µM | < 0.5 µM | < 0.5 µM | 0.5 to 5 µM
Cn1nccc1-c1ccc2c(c1)CN([C@H](CN)Cc1cccc(F)c1)C2=O [Example 1, 2-[(1S)-2-Amino-1-(3-fluorobenzyl)ethyl]-5-(1-methyl-1H-pyrazol-5-yl)isoindolin-1-one] | < 0.5 µM | < 0.5 µM | < 0.5 µM | < 0.5 µM | 0.5 to 5 µM
Cn1ncc(Br)c1-c1cnc2c(c1)CN([C@H](CN)Cc1cccc(F)c1)C2=O [Example 91, 6-[(1S)-2-amino-1-(3-fluorobenzyl)ethyl]-3-(4-bromo-1-methyl-1H-pyrazol-5-yl)-5,6-dihydro-7H-pyrrolo[3,4-b]pyridin-7-one] | < 0.5 µM | < 0.5 µM | < 0.5 µM | < 0.5 µM | > 5 µM
Cn1nccc1-c1cc2c(cn1)C(=O)N([C@H](CN)Cc1cc(F)cc(F)c1)C2 [Example 102, 2-[(1S)-2-amino-1-(3,5-difluoro-benzyl)ethyl]-6-(1-methyl-1H-pyrazol-5-yl)-1,2-dihydro-3H-pyrrolo[3,4-c]pyridin-3-one] | < 0.5 µM | < 0.5 µM | < 0.5 µM | < 0.5 µM | 0.5 to 5 µM
Cn1ncc(Cl)c1-c1ccc2c(c1)CN([C@H](CN)Cc1ccsc1)C2=O [Example 68, 2-[(1S)-2-amino-1-(3-thienylmethyl)ethyl]-5-(4-chloro-1-methyl-1H-pyrazol-5-yl)isoindolin-1-one] | < 0.5 µM | < 0.5 µM | < 0.5 µM | < 0.5 µM | 0.5 to 5 µM
CSCc1cnn(C)c1-c1ccc2c(c1)CN([C@H](CN)Cc1cc(F)cc(F)c1)C2=O [Example 49, 2-[(1S)-2-amino-1-(3,5-difluorobenzyl)ethyl]-5-[4-(methylthio)methyl-1-methyl-1H-pyrazol-5-yl]isoindolin-1-one] | 0.5 to 5 µM | < 0.5 µM | 0.5 to 5 µM | < 0.5 µM | > 5 µM
Cc1cnn(C)c1-c1ccc2c(c1)CN([C@H](CN)Cc1cc(F)cc(F)c1)C2=O [Example 42, 2-[(1S)-2-amino-1-(3,5-difluorobenzyl)ethyl]-5-(4-methyl-1-methyl-1H-pyrazol-5-yl)isoindolin-1-one] | < 0.5 µM | < 0.5 µM | < 0.5 µM | < 0.5 µM | 0.5 to 5 µM
Cn1ncc(COC2CCC2)c1-c1cc2c(cn1)C(=O)N([C@H](CN)Cc1cc(F)cc(F)c1)C2 [Example 108, 2-[(1S)-2-amino-1-(3,5-difluoro-benzyl)ethyl]-6-[4-(cyclobutoxy-methyl)-1-methyl-1H-pyrazol-5-yl]-1,2-dihydro-3H-pyrrolo[3,4-c]pyridin-3-one] | < 0.5 µM | < 0.5 µM | < 0.5 µM | < 0.5 µM | 0.5 to 5 µM
Cn1ncc(C#N)c1-c1ccc2c(c1)CN([C@H](CN)Cc1cccc(F)c1)C2=O [Example 13, 2-[(1S)-2-amino-1-(3-fluorobenzyl)ethyl]-5-(4-cyano-1-methyl-1H-pyrazol-5-yl)isoindolin-1-one] | < 0.5 µM | < 0.5 µM | < 0.5 µM | < 0.5 µM | > 5 µM
Cn1ncc(Cl)c1-c1cc2c(cn1)C(=O)N([C@H](CN)Cc1cc(F)cc(F)c1)C2 [Example 101, 2-[(1S)-2-amino-1-(3,5-difluorobenzyl)ethyl]-6-(4-chloro-1-methyl-1H-pyrazol-5-yl)-1,2-dihydro-3H-pyrrolo[3,4-c]pyridin-3-one] | < 0.5 µM | < 0.5 µM | < 0.5 µM | < 0.5 µM | 0.5 to 5 µM
Cn1ncc(COCC2CC2)c1-c1ccc2c(c1)CN([C@H](CN)Cc1cccc(F)c1)C2=O [Example 9, 2-[(1S)-2-amino-1-(3-fluorobenzyl)ethyl]-5-(4-cyclopropylmethoxymethyl-1-methyl-1H-pyrazol-5-yl)isoindolin-1-one] | < 0.5 µM | < 0.5 µM | < 0.5 µM | < 0.5 µM | > 5 µM
Cn1nccc1-c1ccc2c(c1)CN([C@H](CN)Cc1cccc(C#N)c1)C2=O [Example 75, 3-{(2S)-3-amino-2-[5-(1-methyl-1H-pyrazol-5-yl)-1-oxo-1,3-dihydro-2H-isoindol-2-yl]propyl}benzonitrile] | < 0.5 µM | 0.5 to 5 µM | < 0.5 µM | 0.5 to 5 µM | > 5 µM
